{"source": "patent US20150335558A1", "about": "“NERVE GROWTH INHIBITOR, CUTANEOUS-SENSORY-IRRITATION INHIBITOR, AND MARKER FOR CUTANEOUS-SENSORY-IRRITATION DETECTION” (HOYU CO., LTD., priority 2012, published 2015)", "key": {"ICR mice": {"tested_on": "ICR mice", "assay": "Scratch bouts of ICR mice after 10% SDS application (Sample Experiment 1-1)", "format": "in vivo, mouse", "conditions": "ICR mice, 10% SDS aqueous solution 50 μL single application to rostral back, Day 0 to Day 4, vs untreated and solvent control", "experimental": "The present Sample Experiment was conducted using ICR mice, and an anionic surfactant, namely, sodium dodecyl sulfate (SDS), was used as a stimulating substance to analyze the scratch bouts of mice. After SDS had been applied, terfenadine (TRF) was administered as an antihistamine to determine its effect on scratch bouts.\nMale ICR mice at ages of 7 to 8 weeks, purchased from Japan SLC, were used. The mice were given solid feed under free water supply and subjected to preliminary rearing for 7 days or longer under a constant temperature/constant humidity environment with a temperature of 22±2° C., and a humidity of 55±10% before they were used in the test. The mice for use were used in the test at least 3 days after shearing/depilating the rostral back of each mouse. […]\nThe scratch bouts of mice were performed in view of the Kuraishi et al. report. That is, a single mouse was put in each chamber of the 4 divided sections in an acrylic box (13×9×35 cm) to be acclimated for at least an hour, and they were video recorded in an environment without any person for at least an hour a day from the day of applying the above 10% SDS aqueous solution (Day 0) to the 4th day after application (Day 4) to record their movement. Then, by watching the video, the number of scratch bouts against the rostral back by the hind leg was counted. […]"}, "[1]": {"tested_on": "L-histidine decarboxylase (HDC)", "assay": "HDC expression amount in mouse epidermis and dermis by Western blot (Sample Experiment 1-3)", "format": "in vivo", "conditions": "ICR mice, Day 4, 10% SDS vs solvent control", "description": "Concerning the epidermis and dermis obtained by the method in the “Amount of Histamine in Mouse Skin” section above, the HDC in the epidermis and the HDC in the dermis were quantitatively determined by the Western blot analysis. The protein in the epidermis and the dermis was extracted using the Mammalian cell lysis kit (Sigma, Tokyo, Japan).\nThe protein extract was subjected to centrifugation and the obtained supernatant was used as a protein solution. The amount of protein in the protein solution was quantitatively determined using a protein quantification kit, 2-D Quant Kit of GE Health Care Bioscience Co. Then, a sample buffer containing a reducing agent, 2-mercaptoethanol, was added to a certain amount of protein, and the mixture was reacted at 95° C. to cut the disulfide bond in the protein structure. This enables electrophoresis that reflects the molecular amount.\nThe protein solution processed in the above manner was subjected to the Western blot analysis. In other words, electrophoresis was performed according to the following electrophoresis condition. As a result, protein was separated according to the molecular amount. Then, the separated protein was transcribed to the membrane according to the following transcription condition.\nApplied gel: Nupage 4%-12% Bis-tris gels (Invitrogen Corp., Carlsbad, Calif.) Electrophoresis buffer: 3-morpholinopropanesulfonic acid (MOPS) buffer Current/electrophoresis time: 200V, 100 mins.\nApplied membrane: Polyvinylidene Fluoride (PVDF) membrane Electrophoresis buffer: NuPAGE transcription buffer (Invitrogen Corp., Carlsbad, Calif.) pos Current/electrophoresis time: 30V, 60 mins.\nThe membrane was cut at about 50 kDa after transcription. Then, blocking was performed with a 1% skim milk aqueous solution. […] After processing the secondary antibody and then washing each membrane with PBS-T (a solution comprising PBS and 0.1% Tween20), a band was detected with a fluorescent scanner. Then, the detected band was determined by quantification using an image analysis software Scion Image (Scion. Corp., Frederick, Md., USA). The Scion Image is a software that selects the band of the protein to be quantified, reads the band area and the density of the color tone, and detects the numerical value corresponding to the protein expression amount based on those information.\nHDC and β-actin (component of the cytoskeleton) are detected from the above processing. […]"}}, "data": [{"smiles": "CCCCCCCCCCCCOS(=O)(=O)[O-].[Na+]", "note": "[SDS, sodium dodecyl sulfate]", "values": [{"measurement": "scratch bouts of mice (number in 60 mins.) after stimulating substance", "setting": "ICR mice", "value": "increased significantly over time"}, {"measurement": "53 kDa-HDC (active) expression amount, dermis", "setting": "[1]", "value": "did not change"}, {"measurement": "53 kDa-HDC (active) expression amount, epidermis", "setting": "[1]", "value": "increased"}, {"measurement": "74 kDa-HDC (inactive) expression amount, dermis", "setting": "[1]", "value": "increased significantly"}, {"measurement": "74 kDa-HDC (inactive) expression amount, epidermis", "setting": "[1]", "value": "increased"}]}]}
